Assays:
Assay in all cases: MTT proliferation assay, single agent
Type in all cases: cell-based
435S = details: Melanoma (melanocyte), BRAF V600E, 72 h, mean of several independent experiments
Description: (§1) The compound of formula (1) was tested using a Thiazolyl Blue Tetrazolium Bromide (MTT) proliferation assay in a panel of tumor cell lines of different origins.
(§2) All culture materials were obtained from Biological Industries (Kibbutz Beit Haemek, Israel) or Invitrogen (Paisley, Scotland, United Kingdom). The non-tumor cell lines HF and HACAT were provided by Vall d'Hebrón Hospital and GmbH, respectively. The PC9 naïve cell line was provided by Mayumi Ono and, the H3122, HCC78 and 11-18 by Daniel Costa. The PC9-GR1, PC9-GR2, PC9-GR3, PC9-GR4, PC9-GR5 and PC9-ER cell lines were derived in house by exposing the parental PC9 cell line to increasing concentrations of erlotinib (ER) or gefitinib (GR). The rest of the cell lines in which compound (1) was tested were purchased from ATCC (H23, H1975, H2228, A549, H460, Calu-6, H1650, SK-MES-1, EBC1, SNU1, AGS, N87, PC3, BxPC3, DLD1, HT29, SW48, SCC9,FaDu, AU565, Gingival, Prostate, SU-DHL-1 and A431). All cell lines were maintained in RPMI medium supplemented with 10% FBS, 50 µg/mL penicillin-streptomycin and 2 mM L-Glutamine. All cells were grown in a humidified atmosphere with 5% CO2 at 37°C.
(§3) Cell viability in response to single agent treatment was assessed by the Thiazolyl Blue Tetrazolium Bromide (MTT) (Sigma, St Louis, MO) assay. Cells from each cell line were seeded at 2000 to 10000 per well in 96-well plates. […] After treatment, cells were incubated with medium containing MTT (0.75 mg/mL in medium) for 1-2 h at 37°C. Culture medium with MTT was removed and formazan crystals reabsorbed in 100 µL DMSO (Sigma, St. Louis, MO). Cell viability was determined by measuring the absorbance at 492 nm, using a microplate reader (BioWhittaker, Walkersville, MD).
(§4) The IC50s shown are the mean of several independent experiments. Standard errors are also listed Table 2. SCC means squamous cell carcinoma, ADC means adenocarcinoma, GBM means glioblastoma.

A549 = details: Homo sapiens, Lung ADC, KRAS, 72 h, mean of several independent experiments
Description: as §1, §2, §3, §4

BxPC3 = details: Homo sapiens, BXPC-3, Pancreas, mut TP53, 72 h, mean of several independent experiments
Description: as §1, §2, §3, §4

CD74-ROS1 (G2032) = details: Lung ADC, ROS1 translocated, 72 h, mean of several independent experiments
Description: as §1, §2, §3, §4

CD74-ROS1 (wt) = details: Lung ADC, ROS1 translocated, 72 h, mean of several independent experiments
Description: as §1, §2, §3, §4

Calu6 = details: Homo sapiens, Calu-6, Lung ADC, KRAS, 72 h, mean of several independent experiments
Description: as §1, §2, §3, §4

H11-18 = details: Lung ADC, EGFR ex21, 72 h, mean of several independent experiments
Description: as §1, §2, §3, §4

H1568 = details: NCI-H1568, Lung ADC, CD74-NRG1, 72 h, mean of several independent experiments
Description: as §1, §2, §3, §4

H1650 = details: Homo sapiens, NCI-H1650, Lung ADC, EGFR ex19, 72 h, mean of several independent experiments
Description: as §1, §2, §3, §4

H1703 = details: Homo sapiens, NCI-H1703, SCC Lung, DDR2 wt, 72 h, mean of several independent experiments
Description: as §1, §2, §3, §4

H1975 = details: Homo sapiens, NCI-H1975, Lung ADC, EGFR ex21, 72 h, mean of several independent experiments
Description: as §1, §2, §3, §4

H2228 = details: Homo sapiens, NCI-H2228, Lung ADC, ALK-EML4 (v3), 72 h, mean of several independent experiments
Description: as §1, §2, §3, §4

H3122 = details: Homo sapiens, NCI-H3122, Lung ADC, ALK-EML4 (v1), 72 h, mean of several independent experiments
Description: as §1, §2, §3, §4

HCC78 = details: Homo sapiens, Lung ADC, ROS1-SLC34A2, 72 h, mean of several independent experiments
Description: as §1, §2, §3, §4

HT29 = details: Homo sapiens, HT-29, Colon ADC, BRAF V600E, 72 h, mean of several independent experiments
Description: as §1, §2, §3, §4

I638F = details: SCC Lung, DDR2 mutated, 72 h, mean of several independent experiments
Description: as §1, §2, §3, §4

L239R = details: SCC Lung, DDR2 mutated, 72 h, mean of several independent experiments
Description: as §1, §2, §3, §4

PC3 = details: Homo sapiens, PC-3, Prostate ADC, DDR2 wt, 72 h, no standard error printed
Description: as §1, §2, §3, §4

PC9-ER = details: Homo sapiens, PC-9/ER, Lung ADC, EGFR ex19, 72 h, mean of several independent experiments
Description: as §1, §2, §3, §4

PC9-GR2 = details: Lung ADC, EGFR ex19, 72 h, mean of several independent experiments
Description: as §1, §2, §3, §4

PC9-GR3 = details: Lung ADC, EGFR ex19, 72 h, mean of several independent experiments
Description: as §1, §2, §3, §4

PC9-GR4 = details: Lung ADC, EGFR ex19, 72 h, mean of several independent experiments
Description: as §1, §2, §3, §4

PC9 = details: Homo sapiens, PC-9, Lung ADC, EGFR ex19, 72 h, mean of several independent experiments
Description: as §1, §2, §3, §4

SK-MES-1 = details: Homo sapiens, SCC Lung, DDR2 wt, 72 h, mean of several independent experiments
Description: as §1, §2, §3, §4

U118MG = details: Homo sapiens, U-118-MG, GBM, ROS1-FIG, 72 h, mean of several independent experiments
Description: as §1, §2, §3, §4

IC50 (A549): 490 nM | IC50 (BxPC3): 1800 nM | IC50 (Calu6): 720 nM | IC50 (H1568): 2430 nM | IC50 (H1650): 2680 nM | IC50 (H1703): 550 nM | IC50 (H1975): 2070 nM | IC50 (H2228): 1360 nM | IC50 (H3122): 1340 nM | IC50 (HCC78): 920 nM | IC50 (HT29): 2000 nM | IC50 (PC3): 3400 nM | IC50 (PC9-ER): 1180 nM | IC50 (PC9-GR2): 2160 nM | IC50 (PC9-GR3): 880 nM | IC50 (PC9-GR4): 2100 nM | IC50 (PC9): 2850 nM | IC50 (SK-MES-1): 570 nM
Compound: Cn1c(=O)c(-c2c(Cl)cccc2Cl)cc2c(N)nc(Nc3ccccc3)nc21 [Compound (1), 4-amino-6-(2,6-dichlorophenyl)-8-methyl-2-(phenylamino)-pyrido[2,3-d]pyrimidin-7(8H)-one]
IC50 (435S): 1000 nM | IC50 (CD74-ROS1 (G2032)): 2000 nM | IC50 (CD74-ROS1 (wt)): 1900 nM | IC50 (H11-18): 4900 nM | IC50 (I638F): 100 nM | IC50 (L239R): 750 nM | IC50 (U118MG): 2600 nM

— EP3120851A1, “4-AMINO-6-(2,6-DICHLOROPHENYL)-8-METHYL-2-(PHENYLAMINO)-PYRIDO[2,3-D]PYRIMIDIN-7(8H)-ONE FOR TREATMENT OF SOLID CANCERS” (Pangaea Biotech S.L., priority 2015, dated 2017)
